Results published in patent publication US7910723B2, “IG20 splice variants therapeutics for cancer” (The Board of Trustees of the University of Illinois, priority 2006, dated 2011).

Legend:
Assay type in all cases: cell-based
MADD = assay: Phosphorylation of endogenous MADD in HeLa cells (anti-phospho antibodies); details: LY 10 μM 1 h, IGF-1 150 ng/ml 20 minutes
14-3-3 = assay: Association of wtMADD with 14-3-3 in HEK293 cells (immunoprecipitation); details: LY 10 μM 1 h
Method: (A) Cellular distributions of wtMADD and MADD3A. HEK293 cells were transfected with wtMADD or MADD3A. 36 h after transfection, the cells were harvested and membrane andcytosolic fractions were prepared. Immunoblotting was performed using an anti-YFP antibody. Actin and caveolin-1 were used as loading controls. (B) […]. HEK293 cells were transfected with wtMADD or MADD3A. 36 h after transfection, the cells were harvested for immunoprecipitation using an anti-14-3-3 antibody followed by immunoblotting using an anti-YFP antibody for detecting exogenous MADD. The membrane was reprobed with an anti-14-3-3 antibody to show protein loading. (C) Inhibition of PI3K can lead to the association of wtMADD with 14-3-3. HEK293 cells were transfected with wtMADD. Cells were serum starved for 20 h and treated with LY (10 μM) for 1 h. Immunoprecipitation was performed using an anti-14-3-3 antibody, followed by immunoblotting using an anti-YFP or an anti-14-3-3 antibody. (D) Inhibition of Akt can result in the association of wtMADD with 14-3-3. HEK293 cells were co-transfected with wtMADD along with DN-Akt or pcDNA. […]
To explore the molecular mechanism by which nonphosphorylated MADD can trigger apoptosis, the cellular localization of phosphorylated and nonphosphorylated MADD was determined. […]
Immunoprecipitation. […] Immunoblots were prepared and analysed as described above.

HeLa cells = assay: Crystal violet staining, colony formation, HeLa; details: after 12 days
Method: In order to assess the effects on cell growth and proliferation, various shRNA-expressing viable cells were counted. […] The cells were stained with CFSE and cell division was monitored. […] Further confirmation was obtained by plating equal numbers of HeLa cells expressing various shRNAs and determining the number and size of colonies after 12 days.
Crystal Violet Staining. 5×10^5 HeLa and 8×10^5 PA-1 cells were plated into six-well plates. 24 hours later cells were treated with different shRNA-expressing lentiviruses for 4 hours. Cells were washed and replenished with fresh warm medium. Twelve days later, cells were fixed in ice-cold methanol and stained with crystal violet to assess viability and colony formation.

[1] = tested on: PA-1 ovarian carcinoma cells; assay: Spontaneous apoptosis of PA-1 ovarian carcinoma cells; details: PA-1, 72 hours post-transduction
Method: The effects of IG20 down-modulation in PA-1 cells were analyzed. Down-modulation of endogenous IG20 in PA-1 cells was analyzed. RT-PCR of IG20-SVs using F2-B2 primers from PA-1 cells 72 hours post-transduction was performed. Amplification of only IG20pa and MADD using 13L-F and B2 primers was performed. Nuclear Condensation was also determined. 72 hours post-transduction, PA-1 cells were stained with Hoechst stain and analyzed by FACS. Mitochondrial Depolarization was performed. 72 hours post transduction, PA-1 cells were stained with TMRM and analyzed by FACS.
Hoechst Staining. 5×10^5 transduced cells were collected and washed in cold PBS. 1 jig/mL Hoechst 33342 and 5 jig/mL Propidium Iodide (Sigma, St. Louis, Mo.) were used to stain cells for five minutes. Cells with condensed chromatin were analyzed using a BD-LSR (Becton Dickinson, N.J.). Highly PI-positive cells which represent necrotic or late-apoptotic cells were excluded from the analysis. Only GFP-positive cells were included in the analysis.
TMRM staining. 5×10^5 transduced cells were collected and washed in cold PBS and then stained with 100 nM tetramethylrhodamine methyl ester (Molecular Probes, Invitrogen, CA) for 15 minutes at 37° C. Cells were washed with cold PBS and then subjected to FACS analysis using a FACS Calibur. Only GFP-positive (shRNA-expressing) cells were included in the analysis.

caspase-8 = assay: Immunoblot of caspase-8 processing in transduced PA-1 cells; details: PA-1, 48 h post-transduction
Method: To gain insight into the mechanism underlying MADD-mediated cell survival, whether caspases were activated upon abrogation of MADD expression examined. HeLa cells and PA-1 cells were collected 48 h post-transduction and probed for caspase-8 and FADD, which are components of the DISC. […] TRAIL treatment results in recruitment of procaspase-8 to the receptors followed by its cleavage resulting in its activation. The cleaved intermediate fragments (p43/p41) and the catalytically active subunits of caspase-8 (p18) were detected upon TRAIL treatment. Caspase-8 is the initiator caspase that can cause activation of the effector caspase-3. A decrease in the amount of pro-caspase-3 indicates its cleavage to form active caspase-3 only in MADD-depleted cells.
Immunoblotting. The membranes were blocked in 5% non-fat dry milk in PBS-Tween (PBS with 0.05% Tween 20) for 1 hour. Primary antibodies were used at a concentration of 1 μg/mL and the secondary antibodies were used at a 1:10000 concentration. The blots were developed by enhanced chemiluminescence according to the manufacturer's protocol (Pierce Biotechnology Inc., Rockford, Ill.).

Compound | Phosphorylation of endogenous MADD (MADD) | Binding of WtMADD to 14-3-3 (14-3-3) | Number of colonies (HeLa cells) | Size of colonies (HeLa cells) | Cells that underwent spontaneous apoptosis [1] [%] | Intermediate active-caspase-8 proteins (p43/41) (caspase-8)
O=c1cc(N2CCOCC2)oc2c(-c3ccccc3)cccc12 [LY] | decreased considerably | able to bind to 14-3-3 only in the presence of LY | – | – | – | –
13L-shRNA: shRNA targeting exon 13L (IG20, MADD), 5′ CGGCGAATCTATGACAATC-3′ (SEQ ID NO: 4) | – | – | significantly fewer colonies | comparable to that of controls | 50 | higher amounts of the intermediate active-caspase-8 proteins (p43/41)
